Assay results taken from BindingDB's records for patent US20250263370 (Tay Therapeutics, 2025).
pIC50: −log10 of the molar value.

Key:
[1] = biological target: T1, Bromodomain-containing protein 4 [348-457] (Human, UniProt O60885); assay: Biological Activity Primary Activity Assay
T1 construct: 348-457
Method: (§1) 90 μL per well of cell suspension without tracer was also dispensed into at least 3 wells as “No tracer control samples” for background correction. Serially diluted test compounds were prepared at 1000× concentration in DMSO and further diluted to 10× concentration in Opti-MEM. […] Plates were then incubated at 37° C. +5% 002 incubator for 2 hours.

[2] = biological target: Bromodomain-containing protein 4 [58-164] (Homo sapiens, UniProt O60885); assay: Biological Activity Primary Activity Assay
Method: as §1

SMILES | IC50 [1] | pIC50 [2]
CNC(=O)c1c(OC(C)c2ccc3c(c2)COC3)cc(C(N)=O)n1C (centres undefined) [US20250263370, Example 15] | in the range around 0.6 µM | < 5.00
CCNC(=O)c1[nH]c(C(=O)NC)c([C@H](C)c2ccccc2F)c1C [US20250263370, Example 74] | in the range around 5.5 µM | < 5.00
